Results taken from patent US20090227533A1, “miR-34 Regulated Genes and Pathways as Targets for Therapeutic Intervention” (priority 2007, published 2009).

Columns and labels:
LNCaP cells = test: Alamar Blue proliferation assay, prostate cancer cells; type: cell-based, human; conditions: 30 nM, normalized to negative control miRNA (100% proliferation)
Description: (§1) The inventors assessed the therapeutic effect of hsa-miR-34a for prostate cancer by using four individual human prostate cancer cell lines. To measure cellular proliferation of prostate cancer cells, the following prostate cancer cell lines were used: PPC-1, derived from a bone metastasis; Du145, derived from a brain metastasis; RWPE2, derived from prostate cells immortalized by human papillomavirus 18 and transformed by the K-RAS oncogene; and LNCaP, derived from a lymph node metastasis (Bello et al., 1997; Pretlow et al., 1993; Stone et al., 1978; Brothman et al., 1991; Horoszewicz et al., 1980). PPC-1 and Du145 cells lack expression of the prostate-specific antigen (PSA) and are independent of androgen receptor (AR) signaling. In contrast, RWPE2 and LNCaP cells test positive for PSA and AR. Cells were transfected with synthetic hsa-miR-34a (Pre-miR™-hsa-miR-34a, Ambion cat. no. AM17100) or negative control miRNA (NC; Pre-miR™ microRNA Precursor Molecule-Negative Control #2; Ambion cat. no. AM17111) in a 96-well format using a lipid-based transfection reagent. Lipid-based reverse transfections were carried out in triplicate according to a published protocol (Ovcharenko et al., 2005) and the following parameters: cells (6,000-7,000 per 96 well), 0.1-0.2 μl Lipofectamine™ 2000 (cat. no. 11668-019, Invitrogen Corp., Carlsbad, Calif., USA) in 20 μl OptiMEM (Invitrogen), 30 nM final concentration of miRNA in 100 μl. Proliferation was assessed 4-7 days post-transfection using Alamar Blue™ (Invitrogen) following the manufacturer's instructions. As a control for inhibition of cellular proliferation, siRNA against the motor protein kinesin 11, also known as Eg5, was used. Eg5 is essential for cellular survival of most eukaryotic cells and a lack thereof leads to reduced cell proliferation and cell death (Weil et al., 2002). siEg5 was used in lipid-based transfection following the same experimental parameters that apply to miRNA. Fluorescent light units (FLU) were measured after 3 hours, normalized to the control, and plotted as percent change in proliferation. Percent proliferation of hsa-miR-34a treated cells relative to cells treated with negative control miRNA (100%) is shown in Table 9 and in FIG. 5.

RWPE2 cells = test: as above; type: cell-based, human; conditions: 30 nM, normalized to negative control miRNA (100% proliferation)
Description: as §1

PPC-1 cells = test: as above; type: cell-based, human; conditions: 30 nM, normalized to negative control miRNA (100% proliferation)
Description: as §1

Du145 cells = test: as above; type: cell-based, human; conditions: 30 nM, normalized to negative control miRNA (100% proliferation)
Description: as §1

[1] = system: PPC-1 prostate cancer cells; test: Long-term growth curve with repeated electroporation; type: cell-based, human; conditions: by day 22; 1.6 μM electroporated repeatedly
Protocol: (§2) To evaluate the therapeutic activity of hsa-miR-34a over an extended period of time, we conducted growth curve experiments in the presence of miRNA for up to 22 days. Since in vitro transfections of naked interfering RNAs, such as synthetic miRNA, are transient by nature and compromised by the dilution of the oligo during ongoing cell divisions, miRNA was administered at multiple time points (Bartlett et al. 2006; Bartlett et al. 2007). To accommodate miRNA delivery into a large quantity of cells, the inventors employed the electroporation method to deliver hsa-miR-34a or negative control miRNA into PPC-1, PC3, and Du145 human prostate cancer cells. Briefly, 1×10^6 PPC-1 or PC3 cells, or 0.5×10^6 Du145 cells were electroporated with 1.6 μM hsa-miR-34a or negative control using the BioRad Gene Pulser Xcell™ instrument (BioRad Laboratories Inc., Hercules, Calif., USA), seeded and propagated in regular growth medium. Experiments with PC3 and Du145 cells were carried out in triplicates. When the control cells reached confluence (days 4 and 11 for PPC-1; days 7 and 14 for PC3 and Du145), cells were harvested, counted and electroporated again with the respective miRNAs. To ensure similar treatment of both conditions as well as to accommodate exponential growth, the cell numbers used for the second and third electroporation were titrated down to the lowest count. The population doubling was calculated from these electroporation events using the formula PD=ln(Nf/N0)/ln 2 and adjusting for the fact that approximately 72% of newly seeded cells adhere to the plate. Cell counts were extrapolated and plotted on a linear scale (FIG. 6). Arrows represent electroporation days. Standard deviations are included in the graphs.

[2] = system: PC3 prostate cancer cells; test: as above; type: cell-based, human
Protocol: as §2

[3] = system: Du145 prostate cancer cells; test: as above; type: cell-based, human
Protocol: as §2

PPC-1 tumors = test: Histology and immunohistochemistry (Ki-67, caspase 3) of xenograft tumors; type: in vivo, NOD/SCID mice
Protocol: To gain further insight into the biological status of these cells, immunohistochemistry analyses specific for the proliferation marker Ki-67, as well as caspase 3, an indicator of apoptosis were performed.

[4] = system: basal cell carcinoma cells (TE354T); conditions: cited from earlier work
[5] = system: cervical cancer cells (HeLa); conditions: cited from earlier work
[6] = areas with viable cells in treated PPC-1 tumors

## hsa-miR-34a: synthetic miRNA; mature sequence UGGCAGUGUCUUAGCUGGUUGUU (MIMAT0000255; SEQ ID NO:1) (synthetic miRNA, chemistry not given here)
LNCaP cells
  % proliferation: 49.40%
RWPE2 cells
  % proliferation: 95.96%
PPC-1 cells
  % proliferation: 24.65%
Du145 cells
  % proliferation: 81.26%
[1]
  fate of PPC-1 cells in long-term culture: eliminated
[2]; PC3, day 21
  cells relative to cells electroporated with negative control miRNA: 2.8%
[2]; day 21, 1.6 μM electroporated repeatedly, relative to control cells (100%)
  inhibition of PC3 cell growth: 97.2%
[3]; Du145, day 19
  cells relative to cells electroporated with negative control miRNA: 6.9%
[3]; day 19, 1.6 μM electroporated repeatedly, relative to control cells (100%)
  inhibition of Du145 cell growth: 93.1%
PPC-1 tumors; PPC-1 tumors
  tumor histology (hematoxylin and eosin): consisted mostly of matrigel with cellular debris and sparsely distributed cells
PPC-1 tumors; [6]
  Ki-67 (proliferation marker) immunohistochemistry: reduced levels
  caspase 3 (apoptosis indicator) immunohistochemistry: increased levels
[4]
  proliferation: inhibits the proliferation
[5]
  proliferation: inhibits the proliferation
